Among the data in PubChem BioAssay (NCI) are GI50 and TGI values, retold here.

Test systems include OVCAR-3 ovarian; NCI-H460 lung; K-562 leukemia; BT-549 breast; OVCAR-8 ovarian; CAKI-1 renal; UACC-257 melanoma; SK-OV-3 ovarian; T-47D breast; MCF7 breast.
Common to all, as to test: growth of human tumour cells (NCI), 48 h

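How tested: cells in 96-well plates exposed to compound for 48 hours at five concentrations. GI50 = concentration required for 50% inhibition of growth. TGI denotes the concentration required for complete inhibition of growth.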

As to `CN(C)CCNC(=O)c1ccc2c(c1)oc1cc3ccccc3c(=O)n12`, the GI50 was 13.2 µM in the experiment with OVCAR-3 ovarian; 7.5 µM with NCI-H460 lung; 35.4 µM in the experiment with K-562 leukemia; 25.9 µM with BT-549 breast; 19.4 µM in the experiment with OVCAR-8 ovarian; 10.8 µM with CAKI-1 renal. In addition, the GI50 in the experiment on UACC-257 melanoma is 21.7 µM; with SK-OV-3 ovarian it was 13.8 µM. For the same compound, the TGI in the experiment on OVCAR-3 ovarian was 30.4 µM; in the experiment on NCI-H460 lung, 25.7 µM; in the experiment with K-562 leukemia it was > 100 µM; in the experiment with BT-549 breast it was 45.8 µM; in the experiment with OVCAR-8 ovarian, 42.5 µM; with CAKI-1 renal it was 25.4 µM. The TGI in the experiment on UACC-257 melanoma worked out at 37.5 µM; in the experiment with SK-OV-3 ovarian, 30.9 µM.
Regarding `Nc1n[n+]([O-])c2ccc(Cl)cc2[n+]1[O-]`, the TGI with T-47D breast is 99.4 µM; in the experiment with K-562 leukemia it was > 100 µM; with BT-549 breast, 29.2 µM; in the experiment with CAKI-1 renal it was 91.2 µM; with UACC-257 melanoma, 54.3 µM; in the experiment with MCF7 breast, > 100 µM. The compound also displayed a TGI in the experiment with SK-OV-3 ovarian of 52.9 µM.
As to `CN(c1cccc(C(=O)O)c1)c1cc(O/N=[N+](\[O-])N(C)C)c([N+](=O)[O-])cc1[N+](=O)[O-]`, the GI50 with OVCAR-3 ovarian was > 100 µM; in the experiment with NCI-H460 lung it was > 100 µM; in the experiment with K-562 leukemia it was 78.8 µM; in the experiment with BT-549 breast it was > 100 µM; with OVCAR-8 ovarian it was > 100 µM; in the experiment with CAKI-1 renal, > 100 µM. The GI50 was > 100 µM in the experiment on UACC-257 melanoma and 59.8 µM in the experiment with MCF7 breast. In addition, the TGI in the experiment with OVCAR-3 ovarian, in the experiment on NCI-H460 lung, in the experiment with K-562 leukemia, in the experiment on BT-549 breast, in the experiment with OVCAR-8 ovarian and with CAKI-1 renal was > 100 µM throughout. Moreover, the TGI in the experiment with UACC-257 melanoma and in the experiment with MCF7 breast was > 100 µM throughout.
Consider `O=C(CCN1CCCC1)Nc1ccc2c(Nc3ccc(F)cc3)c3ccccc3nc2c1`, for which the GI50 in the experiment with OVCAR-3 ovarian is 1.68 µM; in the experiment on NCI-H460 lung it was 0.211 µM; with T-47D breast, 1.01 µM; in the experiment with BT-549 breast, 1.73 µM; in the experiment on OVCAR-8 ovarian, 1.56 µM; in the experiment with CAKI-1 renal, 1.26 µM. For the same compound, the GI50 is 1.97 µM in the experiment on UACC-257 melanoma and 0.147 µM in the experiment on MCF7 breast. The TGI was 4.21 µM in the experiment on OVCAR-3 ovarian; 1.38 µM in the experiment on NCI-H460 lung; 3.79 µM in the experiment with T-47D breast; 4.28 µM in the experiment with BT-549 breast; 8.73 µM in the experiment with OVCAR-8 ovarian; 2.6 µM with CAKI-1 renal. The TGI with UACC-257 melanoma was 4.12 µM; in the experiment with MCF7 breast, 1.89 µM.
As to `CCN(Cc1ccc(Cl)c(Cl)c1)c1ccc2nc(N)nc(N)c2c1C`, the GI50 is < 0.01 µM with NCI-H460 lung; 0.67 µM in the experiment with T-47D breast; 0.296 µM in the experiment on BT-549 breast; < 0.0237 µM in the experiment with CAKI-1 renal; 1.25 µM in the experiment with UACC-257 melanoma; 0.0189 µM with MCF7 breast. For the same compound, the GI50 in the experiment on SK-OV-3 ovarian is 0.172 µM. The TGI in the experiment with NCI-H460 lung came to 1.47 µM; in the experiment on T-47D breast, 2.71 µM; with BT-549 breast, 7.27 µM; in the experiment with CAKI-1 renal, 0.802 µM; in the experiment on UACC-257 melanoma, 2.72 µM; in the experiment on MCF7 breast, 1.52 µM. In the experiment with SK-OV-3 ovarian, the TGI was found to be 2.22 µM.
Take `CC1(Cl)C(=O)NC(=O)N([C@H]2C[C@H](O)[C@@H](CO)O2)C1N=[N+]=[N-]` (stereo partly specified): the TGI in the experiment on OVCAR-3 ovarian, with NCI-H460 lung, in the experiment on K-562 leukemia, in the experiment with OVCAR-8 ovarian, in the experiment with CAKI-1 renal and in the experiment with UACC-257 melanoma was > 100 µM in each case. The TGI in the experiment on SK-OV-3 ovarian is > 100 µM.
Turning to `COc1ccc(-n2cc(-c3cc(OC)c(OC)c(OC)c3)nc2SCc2cccc(C#N)c2)cc1OC`, the GI50 with OVCAR-3 ovarian is 65 µM; with NCI-H460 lung it was > 100 µM; in the experiment with T-47D breast, > 100 µM; in the experiment with K-562 leukemia, 56.9 µM; in the experiment with CAKI-1 renal, > 100 µM; in the experiment with MCF7 breast, 66.2 µM. Further, the GI50 in the experiment on SK-OV-3 ovarian is > 100 µM. In addition, the TGI in the experiment with OVCAR-3 ovarian, in the experiment with NCI-H460 lung, in the experiment on T-47D breast, in the experiment on K-562 leukemia, with CAKI-1 renal and in the experiment on MCF7 breast was > 100 µM in each case. Besides, in the experiment with SK-OV-3 ovarian, the TGI was > 100 µM.
In the case of `COc1ccc(-c2nc(NC(=O)CS(=O)(=O)c3ccc(F)cc3)sc2C)cc1`, the GI50 with OVCAR-3 ovarian is 15.7 µM; in the experiment on NCI-H460 lung, 20.1 µM; in the experiment with T-47D breast, 21.7 µM; in the experiment on K-562 leukemia it was 3.94 µM; with BT-549 breast, 15.8 µM; in the experiment with OVCAR-8 ovarian, 24.1 µM. Further, the GI50 in the experiment with CAKI-1 renal is 24.2 µM; in the experiment on MCF7 breast it was 16.3 µM; in the experiment on SK-OV-3 ovarian, 24.1 µM. Moreover, the TGI with OVCAR-3 ovarian was 39.9 µM; in the experiment on NCI-H460 lung, 51.5 µM; with T-47D breast it was 80.6 µM; in the experiment with K-562 leukemia it was > 100 µM; in the experiment on BT-549 breast, 40.3 µM; with OVCAR-8 ovarian it was 89.3 µM. Besides, the TGI in the experiment on CAKI-1 renal, in the experiment with MCF7 breast and in the experiment on SK-OV-3 ovarian was > 100 µM each time.
As for `CC(C)(C)OC(=O)N(CCCCN(CCCn1c2c(c3ccccc3c1=O)C(=O)c1ccccc1-2)C(=O)OC(C)(C)C)CCCn1c2c(c3ccccc3c1=O)C(=O)c1ccccc1-2`, the GI50 is 69.6 µM in the experiment on OVCAR-3 ovarian; 6.32 µM with NCI-H460 lung; > 100 µM in the experiment with T-47D breast; 90.5 µM in the experiment on K-562 leukemia; > 100 µM with BT-549 breast; > 100 µM in the experiment on OVCAR-8 ovarian. For the same compound, the GI50 with CAKI-1 renal is 19.9 µM; with SK-OV-3 ovarian it was > 100 µM. Further, the TGI with OVCAR-3 ovarian is > 100 µM; in the experiment on NCI-H460 lung it was 19.3 µM; with T-47D breast it was > 100 µM; in the experiment with K-562 leukemia it was > 100 µM; with BT-549 breast it was > 100 µM; in the experiment with OVCAR-8 ovarian, > 100 µM. Moreover, the TGI in the experiment on CAKI-1 renal and with SK-OV-3 ovarian was > 100 µM each time.
Regarding `COc1ccc2nc3cc(Cl)ccc3c(Sc3ccc(N)cc3)c2c1`, the TGI with OVCAR-3 ovarian was found to be 21.5 µM; with NCI-H460 lung, 21.1 µM; in the experiment on K-562 leukemia, 13.8 µM; in the experiment on OVCAR-8 ovarian it was 23.8 µM; in the experiment with CAKI-1 renal, 29.6 µM; in the experiment with UACC-257 melanoma it was 26.1 µM. The TGI in the experiment with SK-OV-3 ovarian was 18.3 µM.
